Measurements: publication PMC3401165, “Regulation of the Cyanobacterial CO2-Concentrating Mechanism Involves Internal Sensing of NADP^+ and α-Ketogutarate Levels by Transcription Factor CcmR” (PLoS ONE, 2012)

Experiments:
CmpR = target: T1, CmpR (Synechocystis sp. PCC 6803, UniProt Q55459); experiment: SPR difference curves, CmpR binding to immobilised operator DNA; conditions: 1.5 µM CmpR; ligand 10, 100, 500 µM; cmpA promoter DNA; effector (co-activator)
T1 construct: heterologously expressed in E. coli by essentially the same approach as His-tagged CcmR
T1 sequence (Q55459 1-304): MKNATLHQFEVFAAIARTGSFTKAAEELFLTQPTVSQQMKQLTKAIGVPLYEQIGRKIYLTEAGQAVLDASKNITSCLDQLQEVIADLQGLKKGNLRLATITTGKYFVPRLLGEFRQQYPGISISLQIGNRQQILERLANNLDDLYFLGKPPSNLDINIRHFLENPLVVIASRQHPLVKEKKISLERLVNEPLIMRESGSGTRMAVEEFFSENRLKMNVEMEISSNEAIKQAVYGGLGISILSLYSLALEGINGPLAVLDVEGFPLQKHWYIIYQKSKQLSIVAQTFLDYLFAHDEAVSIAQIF

CcmR = target: T2, CcmR (Synechocystis sp. PCC 6803, UniProt P73862); experiment: SPR difference curves, CcmR binding to immobilised operator DNA; conditions: 1.5 µM CcmR; ligand 10, 100, 500 µM; pndhF3 DNA; 10 mM Pipes pH 7.4, 300 mM NaCl; effector (co-repressor)
T2 construct: gene rbcR; recombinant N-terminally His-tagged, heterologously expressed
T2 sequence (P73862 1-316): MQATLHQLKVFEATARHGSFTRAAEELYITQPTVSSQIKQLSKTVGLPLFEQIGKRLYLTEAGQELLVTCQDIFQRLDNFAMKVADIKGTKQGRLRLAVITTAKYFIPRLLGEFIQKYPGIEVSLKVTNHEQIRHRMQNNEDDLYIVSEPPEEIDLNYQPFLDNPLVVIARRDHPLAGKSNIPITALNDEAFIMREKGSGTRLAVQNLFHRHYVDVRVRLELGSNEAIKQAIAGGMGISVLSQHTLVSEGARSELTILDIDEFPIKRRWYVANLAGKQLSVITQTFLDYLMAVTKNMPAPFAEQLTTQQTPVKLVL

[1] = test system: T3, CcmR (Synechocystis sp. PCC 6803), ORF:206cd751; experiment: SPR; conditions: SPR: 10 mM Pipes pH 7.4, 300 mM NaCl, 0.02% Tween-20, 25 uL/min, temperature not stated; EMSA: room temperature 20 min, 6% native PAGE (50 mM Tris pH 8.5 …)
T3 sequence: T2 sequence (P73862 1-316)

Row | Compound | SPR difference curves, CmpR binding to immobilised operator DNA (CmpR) | SPR difference curves, CcmR binding to immobilised operator DNA (CcmR) | binding [1]
1 | O=C(O)COP(=O)(O)O [2-phosphoglycolate] | the presence of 2-PG and RuBP increased binding | – | –
2 | NC(=O)c1ccc[n+]([C@@H]2O[C@H](COP(=O)(O)OP(=O)(O)OC[C@H]3O[C@@H](n4cnc5c(N)ncnc54)[C@H](OP(=O)(O)O)[C@@H]3O)[C@@H](O)[C@H]2O)c1 [NADP^+] | – | CcmR only showed modified binding only in the presence of NADP^+ and α-KG | –
3 | O=C(COP(=O)(O)O)[C@H](O)[C@H](O)COP(=O)(O)O [ribulose-1,5-bisphosphate] | the presence of 2-PG and RuBP increased binding | – | –
4 | O=C(O)CCC(=O)C(=O)O [α-KG] | – | CcmR only showed modified binding only in the presence of NADP^+ and α-KG | –
5 | AGTCAAGCGACAATGGTATAACCTAGATGCATAGAAAGAGTGTTATTTGTTACACCATATCATAGGGGAAATAAAATTCCAGATCAACAACCATTTGCTTAAGTGAATGATAAGTCTGGGTAATTGGAGGAAGAGGCAGGCTA (double strand) [pndhF3-2] | – | – | binds
6 | GCTCCCCGGACTAAGCTTGTCAAAATCATTGGCTTTATTCTATCATTGGTTATCTAACAACAATCCCAGGTCTATGAAAGTGAGTGTAATAGCCATAGGTCTATTTTAGTTATTGACTTCAGCACATCCTAGACCCAAG (double strand) [pccmR (SPR)] | – | – | binds
